# Where no end group is shown, it is not given here.
# Tests used:
# [1] = tested on: ICAM-1 surface expression, EA.hy926 cells; assay: ICAM-1 surface expression by flow cytometry (MFI); type: cell-based, human; settings: for ICAM-1 surface density (in words): 300 µM peptide + TNF-α vs TNF-α activated cells, all p < 0.05; for ICAM-1 MFI: preincubation with 300 µM peptide, then 100 ng/mL TNF-α, six independent experiments, mean ± SD, p vs TNF-α: BP1 0.03, BP2 0.009, BP3 0.09, BP4 0.04, control 71.36 ± 8.31
# Experimental: (§1) EA.hy926 cells, the hybrid human umbilical vein endothelial cell line, were obtained from the American Type Culture Collection (ATCC® CRL2922™, Rockville, MD, USA). Cells were cultured in high glucose Dulbecco’s Modified Eagle’s Medium (DMEM), containing 10% heat-inactivated fetal bovine serum (FBS, Biowest, Riverside, CA, USA) and 50 U/mL of penicillin and 50 µg/mL streptomycin (Sigma Aldrich Chemical Co., Saint Louis, MO, USA). Cells were grown in 5% CO2 in a humidified air incubator at 37 °C. Subculture was performed when 90% confluence was reached.
# (§2) EA.hy926 were seeded in six-well plates at 0.25 × 10^6 cells/well in DMEM supplemented with 5% FBS. Cells were treated with 300 µM of each peptide for 16 h. Then, 100 ng/mL TNF-α or 300 µM H2O2 were added for an additional 6 h or 24 h, respectively.
# To measure adhesion molecule content in human endothelial cells by flow cytometry, the cell monolayer was detached and fixed before immunofluorescence labelling. The following antibodies were used per sample: 20 µL anti-ICAM-1/CD54-phycoerythrin (PE) (clone HA58, BD Biosciences, Franklin Lakes, NJ, USA) and 5 µL anti-VCAM-1/CD106-PerCP-Cy5.5 (clone 51–10C9; BD Biosciences, San Jose, CA, USA), according to the manufacturer’s protocol. Stained cells (10,000 events) were examined by flow cytometry (FACS Calibur, Becton Dickinson, Mountain View, CA, USA) in a simultaneous two-color analysis with FL2 (PE) and FL3 (PerCP-Cy5.5) channels. Markers were set according to the negative controls to quantify the percentage of positively stained cells. Mean Fluorescence Intensity (MFI) was calculated for each antigen (MFI of total stained cells-MFI of negative control cells).
# human ACE = human ACE (Homo sapiens, UniProt P12821); assay: Human ACE inhibition assay (lysate of ACE-transfected EA.hy926 cells, HHL substrate, HPLC)
# Chain of human ACE (P12821 30-1306): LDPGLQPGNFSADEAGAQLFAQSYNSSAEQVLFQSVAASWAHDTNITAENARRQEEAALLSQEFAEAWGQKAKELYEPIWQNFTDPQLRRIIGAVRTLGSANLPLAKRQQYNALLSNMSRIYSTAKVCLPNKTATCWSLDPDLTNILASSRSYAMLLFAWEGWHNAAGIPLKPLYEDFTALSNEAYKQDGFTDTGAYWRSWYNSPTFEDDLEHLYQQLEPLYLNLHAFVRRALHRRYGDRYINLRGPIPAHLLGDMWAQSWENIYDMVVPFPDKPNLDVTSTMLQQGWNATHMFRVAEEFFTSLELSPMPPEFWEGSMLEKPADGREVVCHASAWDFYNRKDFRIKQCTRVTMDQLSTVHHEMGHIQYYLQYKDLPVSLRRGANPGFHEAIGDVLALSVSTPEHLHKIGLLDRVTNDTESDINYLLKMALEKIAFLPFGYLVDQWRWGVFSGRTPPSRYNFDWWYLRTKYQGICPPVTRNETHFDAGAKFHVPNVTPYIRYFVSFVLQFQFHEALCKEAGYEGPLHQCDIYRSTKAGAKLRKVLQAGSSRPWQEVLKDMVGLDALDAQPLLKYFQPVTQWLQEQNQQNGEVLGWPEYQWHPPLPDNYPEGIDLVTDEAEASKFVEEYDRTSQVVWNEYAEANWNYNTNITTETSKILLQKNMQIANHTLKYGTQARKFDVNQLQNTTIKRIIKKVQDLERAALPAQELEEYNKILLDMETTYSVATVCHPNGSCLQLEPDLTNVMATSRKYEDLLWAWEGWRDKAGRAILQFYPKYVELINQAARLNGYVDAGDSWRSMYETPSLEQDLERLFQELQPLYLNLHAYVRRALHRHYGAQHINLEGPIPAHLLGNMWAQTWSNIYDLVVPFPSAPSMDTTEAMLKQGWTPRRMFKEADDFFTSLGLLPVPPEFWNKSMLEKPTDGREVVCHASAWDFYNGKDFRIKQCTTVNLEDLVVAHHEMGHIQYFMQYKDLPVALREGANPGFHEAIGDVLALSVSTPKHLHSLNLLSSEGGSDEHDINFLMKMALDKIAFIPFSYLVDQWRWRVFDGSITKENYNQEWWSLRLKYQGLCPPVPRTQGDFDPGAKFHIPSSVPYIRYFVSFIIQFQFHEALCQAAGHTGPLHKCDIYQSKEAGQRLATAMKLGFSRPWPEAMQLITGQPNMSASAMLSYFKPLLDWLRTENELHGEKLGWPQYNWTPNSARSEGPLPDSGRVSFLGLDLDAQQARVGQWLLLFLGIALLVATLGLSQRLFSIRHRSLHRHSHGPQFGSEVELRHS
# [2] = tested on: VCAM-1 mRNA, EA.hy926 cells; assay: VCAM-1 mRNA expression by RT-PCR in EA.hy926 cells; type: cell-based, human; settings: 300 µM peptide 16 h, then 100 ng/mL TNF-α 6 h; p = 0.01 (BP2), 0.03 (BP3), 0.02 (BP4)
# Experimental: as §1, §2
# Total RNA was extracted from EA.hy926 cells using 300 µL Trisure™ (Bioline, Taunton, MA, USA) reagent and Direct-zol™ RNA MiniPrep (Zymo Research Irvine, Irvine, CA, USA) according to the manufacturer’s protocol. Total RNA was reverse-transcribed into complementary DNA (Sensifast cDNATM Synthesis kit, Bioline, Taunton, MA, USA). The mRNA levels of the target genes were quantified by RT-PCR using SensiFAST SYBER Hi-ROX Kit (Bioline, Taunton, MA, USA) with StepOnePlus Real-Time PCR System (Applied Biosystems, Foster City, CA, USA). Briefly, 5 µL of 1:5 diluted cDNA was added to the qPCR reaction containing 10 μL 2X SensiFAST Mix and 400 nM of each primer in a total volume of 20 μL.
# Specific and validated primers for human glyceraldehyde-3-phosphate dehydrogenase (GADPH), intercellular adhesion marker-1 (ICAM-1), vascular cell adhesion marker-1 (VCAM-1), endothelial nitric oxide synthase (eNOS), interleukin 6 (IL-6), catalase, SOD (Super Oxide Dismutase), NADPH (Nicotinamide Adenine Dinucleotide Phosphate oxidase) and Bax (proapoptosis regulator) genes were used (Sigma-Aldrich Chemical Co., Saint Louis, MO, USA). […]
# The relative quantification of gene expression was determined by the comparative fold change […] method. […]
# purified rabbit ACE = purified rabbit ACE in vitro; read-out: IC50, purified rabbit ACE (given as ACE inhibitory concentration); cited from earlier work
# Description: Numerous reports have identified stable peptides with high ACE-inhibitory activity from pork dry-cured ham after gastrointestinal digestion. Four of them were synthetized chemically (KPVAAP, KAAAATP, KPGRP, and AAATP) for the current experimental studies with human endothelial cells.
IC50 (human ACE),Substance,ICAM-1 surface density (in words) [1],ICAM-1 MFI [1],VCAM-1 mRNA expression vs TNF-α stimulated cells [2],IC50 (purified rabbit ACE)
> 1000 µM,KAAAATP [BP2],reduced ICAM-1 surface density,1064.42 ± 32.02,downregulated,25.6 µM
> 1000 µM,AAATP [BP4],reduced ICAM-1 surface density,926.01 ± 152.46,downregulated,100 µM

# Source: article PMC6747274, “Multifunctional Peptides from Spanish Dry-Cured Pork Ham: Endothelial Responses and Molecular Modeling Studies” (International Journal of Molecular Sciences, 2019)
